What was measured:
[1] = system: IGROV1 cells (cisplatin-sensitive ovarian adenocarcinoma line); test: Assay of intracellular cisplatin (ICP optical assay after cell lysis); type: cell-based, human; settings: 10^6 IGROV1 cells, 100 μM, 2 hours
Description: (§1) IGROV1 cells (cisplatin-sensitive ovarian adenocarcinoma line) at 80% confluence (dish 10 cm in diameter) are treated with […] of free cisplatin or cisplatin encapsulated in the nanoparticles of Example 10 for 2, 4 or 6 hours. On completion of this treatment two washings with PBS are carried out. The cells are treated with trypsin and resuspended in PBS. Two washings of the cell suspensions with PBS are carried out (centrifugation 1000 rpm/1 min). The cells are suspended in 1 mL of PBS and counted.
(§2) 10^6 cells are lysed with 500 μL of the cell lysis solution (lysis buffer from SIGMA). The volume is topped up to 5 mL with milli-Q water with 1% HNO3 acid.

[2] = system: SKV03 cells (cisplatin-resistant ovarian adenocarcinoma line); test: as above; type: cell-based; settings: 10^6 cells SKOV3, 100 μM, 2 hours
Description: as §1
The same procedure is followed with SKV03 cells (cisplatin-resistant ovarian adenocarcinoma line).
as §2

[3] = system: SKOV3 (cisplatin-resistant); test: Cytotoxic effects on tumor lines IGROV-1 and SKOV3 (MTS cell viability); type: cell-based; settings: 24 hours treatment, MTS 48 hours after washing, read-out: concentration necessary to obtain 50% cell death (IC50)
Description: (§3) 2500 cells (IGROV1, SKOV3, ovarian adenocarcinoma lines) per well are incubated in 100 μL of the medium with serum in a 96-well plate. After 24 hours the medium is aspirated and the cells are treated with free cisplatin or cisplatin encapsulated in the nanoparticles of Example 10 in 100 μL of the medium without serum at different concentrations (500, 100, 10, 1, 0.1, 0.01, 0.001 μM). After treatment for 24 hours, the medium is removed and the cells are washed twice with 100 μL of PBS then incubated with 100 μL of the medium with serum.
(§4) The absorbance at 490 nm is measured after incubation for 2 to 4 hours at 37° C. The absorbance is proportional to the cell viability.

[4] = system: cisplatin-sensitive A2780 (Human ovarian carcinoma epithelial tumor); test: Cytotoxic effects on tumor lines (MTS cell viability); type: cell-based; settings: 24 hours treatment, MTS 48 hours after washing, read-out: concentration necessary to obtain 50% cell death (IC50)
Excerpt: (§5) The study consists of determining the concentration inhibiting 50% of cell proliferation (IC50) on a panel of tumor lines, namely • cisplatin-sensitive A2780 (Human ovarian carcinoma epithelial tumor) and cisplatin-resistant A2780/CisPt (Human ovarian carcinoma epithelial tumor) • cisplatin-sensitive IGROV-1 (Human ovarian carcinoma) and cisplatin-resistant IGROV-1/CisPt (Human ovarian carcinoma) • cisplatin-sensitive L1210 (mouse lymphocytic leukemia) and cisplatin-resistant L1210/CisPt (mouse lymphocytic leukemia) […] • NIH: OVCAR3 (ovarian carcinoma), and • P388 (mouse lymphoma)
as §3, with “(ovarian” for “(IGROV1, SKOV3, ovarian”, “lines, etc.)” for “lines)”
as §4

[5] = system: cisplatin-resistant A2780/CisPt (Human ovarian carcinoma epithelial tumor); test: as above; type: cell-based; settings: cisplatin-resistant line A2780; 24 hours treatment, MTS 48 hours after washing; read-out: concentration necessary to obtain 50% cell death (IC50)
Excerpt: as §5
as §3, with “(ovarian” for “(IGROV1, SKOV3, ovarian”, “lines, etc.)” for “lines)”
as §4

[6] = system: IGROV1 (cisplatin-sensitive); test: Cytotoxic effects on tumor lines IGROV-1 and SKOV3 (MTS cell viability); type: cell-based, human; settings: 24 hours treatment, MTS 48 hours after washing, read-out: concentration necessary to obtain 50% cell death (IC50)
Description: as §3, §4

## N.N.[Cl][Pt][Cl] [free cisplatin, cisplatin]
[1]
  cisplatin internalized: 0.5 nmol
[2]
  cisplatin internalized: 0.5 nmol
[3]
  IC50: 4.3 µM
[4]
  IC50: 4.68 µM
[5]
  IC50: 29.2 µM
[6]
  IC50: 2.41 µM
